Columns and labels:
[1] = tested on: NCIH460, HCT116, MDAMB-231/U 251; test: Anti-cancer screen, mean GI50 over the cell lines; assay type: cell-based
Procedure: (§1) Experimental drugs are screened for anti-cancer activity in three cell lines for their GI50, TGI and LC50 values (using five concentrations for each compound). The cell lines are maintained in DMEM containing 10% fetal bovine serum. 96 well micro titer plates are inoculated with cells in 100 μL for 24 hours at 37° C., 5% CO2, 95% air and 100% relative humidity. 5000 HCT116 cells/well, 5000 NCIH460 cells/well and 5000 U251 cells/well are plated. A separate plate with these cell lines is also inoculated to determine cell viability before the addition of the compounds (T0), (See Table I).
(§2) Following 24-hours incubation, experimental drugs are added to the 96 well plates. Each plate contains one of the above cell lines and the following in triplicate: five different concentrations (0.01, 0.1, 1, 10 and 100 μM) of four different compounds, appropriate dilutions of a cytotoxic standard and control (untreated) wells. Compounds are dissolved in DMSO to make 20 mM stock solutions on the day of drug addition and frozen at −20° C. Serial dilutions of these 20 mM stock solutions are made in complete growth medium such that 100 μL of these drug solutions in medium, of final concentrations equaling 0.01, 0.1, 1, 10 and 100 μM can be added to the cells in triplicate. Standard drugs whose anti-cancer activity has been well documented and which are regularly used are Doxorubicin and SAHA, (See Table I).
(§3) For T0 measurement, 24 hours after seeding the cells, 10 μL of 3-(4,5-Dimethyl-2-thiazolyl)-2,5-diphenyl-2H-tetrazolium (MTT) solution per well is added and incubation carried out for 3 hours at 37° C., 5% CO2, 95% air and 100% relative humidity, protected from light. Cells incubated with compounds for 48 hours are treated similarly except with the addition of 20 μL MTT solution per well and a subsequent incubation under the same conditions. After 3 hours of MTT incubation, well contents are aspirated carefully followed by addition of 150 μL DMSO per well. Plates are agitated to ensure solution of the formazan crystals in DMSO and absorbance read at 570 nm, (See Table I).
(§4) Percent growth is calculated for each compound's concentration relative to the control and zero measurement wells (T0; viability right before compound addition). If a test well's O.D. value is greater than the T0 measurement for that cell line % Growth=(test−zero)/(control−zero)×100

NCIH460 cells = test: Anti-cancer screen (MTT), NCIH460 cells; assay type: cell-based; conditions: Homo sapiens, NCI-H460, NCIH460, 48 hours, concentrations tested 0.01-100 μM; for CC50: read-out: LC50 (the source's name)
Procedure: as §1, §2, §3, §4

HCT116 cells = test: Anti-cancer screen (MTT), HCT116 cells; assay type: cell-based; conditions: Homo sapiens, HCT-116, HCT116, 48 hours, concentrations tested 0.01-100 μM
Procedure: as §1, §2, §3, §4

MDAMB-231/U 251 = test: Anti-cancer screen (MTT), MDAMB-231/U 251 cells; assay type: cell-based; conditions: MDAMB-231/U 251, 48 hours, concentrations tested 0.01-100 μM; for CC50: read-out: LC50 (the source's name)
Procedure: as §1, §2, §3, §4

IL-6 = IL-6 in culture supernatants of NCIH 460 cells (ELISA); assay type: cell-based, Human; conditions: Homo sapiens, NCI-H460, NCIH 460, 5 hours
Procedure: Human Lung Cancer cell line (NCIH 460) is used for IL-6 measurement. 5000 cells/well were seeded in a 96 well plate and incubated in CO2 incubator at 37° C. for 24 hours. After 24 hours of incubation the medium from all wells were completed removed and added 100 μl of fresh DMEM containing 10% FCS. 100 μl of different concentrations of the drug were added and incubated for 5 hours in CO2 incubator at 37° C. After 5 hours of incubation the supernatants were collected and stored at −80° C. The concentration of IL-6 in the supernatant was measured using ELISA kit and the IC50 value of the compound was determined from the dose response curve, (See Table II).

Row | SMILES | GI50 [1] | GI50 (NCIH460 cells) | IC (TGI) (NCIH460 cells) | CC50 (NCIH460 cells) | GI50 (HCT116 cells) | IC (TGI) (HCT116 cells) | LC50 (concentration for 50% net cell kill relative to T0) (HCT116 cells) | GI50 (MDAMB-231/U 251) | IC (TGI) (MDAMB-231/U 251) | CC50 (MDAMB-231/U 251) | inhibition at 10 µM (IL-6) | IC50 (IL-6; read-out: IL-6 Inhibition IC50) | inhibition at 1 µM (IL-6; 1 μM)
1 | OC(COc1cccc2[nH]c3ccccc3c12)CN1CCCC1 (stereo not drawn) [Example 6, 1-(9H-carbazol-4-yloxy)-3-pyrrolidin-1-ylpropan-2-ol] | 10.5 µM | 10 µM | 42 µM | 75 µM | > 100 µM | > 100 µM | > 100 µM | > 100 µM | > 100 µM | > 100 µM |  |  | 
2 | COc1cc(NCC(O)COc2cccc3[nH]c4ccccc4c23)cc(OC)c1OC (stereo not drawn) [Example 8] | 8.6 µM | 15 µM | 45 µM | 75 µM | 5.8 µM | 22 µM | 90 µM | 5 µM | 50 µM | > 100 µM |  |  | 
3 | Cc1cc(C)nc(NCC(O)COc2cccc3[nH]c4ccccc4c23)n1 (stereo not drawn) [Example 15, 1-(9H-carbazol-4-yloxy)-3-[(4,6-dimethylpyrimidin-2-yl)amino]propan-2-ol] | 8 µM | > 100 µM | > 100 µM | > 100 µM | > 100 µM | > 100 µM | > 100 µM | 8 µM | > 100 µM | > 100 µM |  |  | 
4 | OC(CNc1nc2ccccc2[nH]1)COc1cccc2[nH]c3ccccc3c12 (stereo not drawn) [Example 19, 1-(1H-Benzimidazol-2-ylamino)-3-(9H-carbazol-4-yloxy)propan-2-ol] | 28.7 µM | 7.5 µM | 35 µM | 70.5 µM | 27 µM | 52 µM | 79 µM | 51.5 µM | 67 µM | 85 µM |  |  | 
5 | OC(CNCc1ccccc1)COc1cccc2[nH]c3ccccc3c12 (stereo not drawn) [Example 23, 1-(9H-carbazol-4-yloxy)-3-benzylaminopropan-2-ol] | 6.6 µM | 0.79 µM | 35 µM | 70 µM | 18 µM | 47 µM | 77 µM | 1 µM | 10 µM | 65 µM | 29.3% | 24 µM | 
6 | O=[N+]([O-])c1ccc(CN2CCN(CC(O)COc3cccc4[nH]c5ccccc5c34)CC2)o1 (stereo not drawn) [Example 26, 1-(9H-carbazol-4-yloxy)-3-{4-[(5-nitro-2-furyl)methyl]piperazin-1-yl}propan-2-ol] | 20.7 µM | 2 µM | 22 µM | 70 µM | 30 µM | 48 µM | 68 µM | 30 µM | 85 µM | > 100 µM |  |  | 
7 | O=[N+]([O-])c1ccc(CN2CCN(CC(O)COc3cccc4[nH]c5ccccc5c34)CC2)s1 (stereo not drawn) [Example 27, 1-(9H-carbazol-4-yloxy)-3-{4-[(5-nitro-2-thienyl)methyl]piperazin-1-yl}propan-2-ol] | 25.9 µM | 45 µM | 98 µM | > 100 µM | 30 µM | 60 µM | 90 µM | 2.8 µM | 48 µM | > 100 µM |  |  | 
8 | COc1cc(CN2CCN(CC(O)COc3cccc4[nH]c5ccccc5c34)CC2)cc(OC)c1 (stereo not drawn) [Example 30, 1-(9H-carbazol-4-yloxy)-3-[4-(3,5-dimethoxybenzyl)piperazin-1-yl]propan-2-ol] | 19.2 µM | 30 µM | 60 µM | 90 µM | 25 µM | 72 µM | 84 µM | 2.5 µM | 9 µM | 70 µM |  |  | 
9 | OC(COc1cccc2[nH]c3ccccc3c12)CN1CCN(Cc2ccc(F)c(F)c2)CC1 (stereo not drawn) [Example 31, 1-(9H-carbazol-4-yloxy)-3-[4-(3,4-difluorobenzyl)piperazin-1-yl]propan-2-ol] | 25.7 µM | 35 µM | 90 µM | 65 µM | 38 µM | 66 µM | 92 µM | 4 µM | 7 µM | 10 µM |  |  | 
10 | O=C(c1ccc([N+](=O)[O-])o1)N1CCN(CC(O)COc2cccc3[nH]c4ccccc4c23)CC1 (stereo not drawn) [Example 35, 1-(9H-carbazol-4-yloxy)-3-{4-(5-nitro-2-furoyl)piperazin-1-yl}propan-2-ol] | 3.27 µM | 0.8 µM | 7.5 µM | 60 µM | 6 µM | 42 µM | 85 µM | 3 µM | > 100 µM | > 100 µM | 80.4% |  | 45%
11 | Cc1cccc2sc(NC(=O)CN3CCN(CC(O)COc4cccc5[nH]c6ccccc6c45)CC3)nc12 (stereo not drawn) [Example 59, 2-{4-[3-(9H-carbazol-4-yloxy)-2-hydroxypropyl]-piperazin-1-yl}-N-(4-methyl-1,3-benzothiazol-2-yl)acetamide] | 28.2 µM | 9.5 µM | > 100 µM | > 100 µM | > 100 µM | > 100 µM | > 100 µM | 47 µM | > 100 µM | > 100 µM |  |  | 
12 | Cc1csc(NC(=O)CN2CCN(CC(O)COc3cccc4[nH]c5ccccc5c34)CC2)n1 (stereo not drawn) [Example 60, 2-{4-[3-(9H-carbazol-4-yloxy)-2-hydroxypropyl]-piperazin-1-yl}-N-(4-methyl-1,3-thiazol-2-yl)acetamide] | 25 µM | 24 µM | 61 µM | 85 µM | 26 µM | 62 µM | 100 µM | > 100 µM | > 100 µM | > 100 µM |  |  | 
13 | O=C(Cc1ccc(F)cc1)N1CCC(NCC(O)COc2cccc3[nH]c4ccccc4c23)CC1 (stereo not drawn) [Example 66] | 18.3 µM | 14 µM | 54 µM | 79 µM | 26 µM | 49 µM | 84 µM | 15 µM | 48 µM | 77 µM |  |  | 
14 | N#Cc1ccc(C(=O)N2CCC(NCC(O)COc3cccc4[nH]c5ccccc5c34)CC2)cn1 (stereo not drawn) [Example 70, 1-(9H-carbazol-4-yloxy)-3-{[1-(6-cyanonicotine-3-carbonyl)piperidin-4-yl]amino}propan-2-ol] | 10.5 µM | 23 µM | 50 µM | 78 µM | 5 µM | 23 µM | 67 µM | 3.5 µM | 8.9 µM | 57 µM |  |  | 
